{"source": "ChEMBL document CHEMBL5465560", "about": "“Selectivity Literature for EUbOPEN Chemogenomic Library” (2024)", "key": {"[1]": {"molecular_target": "T1, Serine/threonine-protein kinase D2 (Homo sapiens) (UniProt Q9BZL6)", "T1 sequence (whole entry)": "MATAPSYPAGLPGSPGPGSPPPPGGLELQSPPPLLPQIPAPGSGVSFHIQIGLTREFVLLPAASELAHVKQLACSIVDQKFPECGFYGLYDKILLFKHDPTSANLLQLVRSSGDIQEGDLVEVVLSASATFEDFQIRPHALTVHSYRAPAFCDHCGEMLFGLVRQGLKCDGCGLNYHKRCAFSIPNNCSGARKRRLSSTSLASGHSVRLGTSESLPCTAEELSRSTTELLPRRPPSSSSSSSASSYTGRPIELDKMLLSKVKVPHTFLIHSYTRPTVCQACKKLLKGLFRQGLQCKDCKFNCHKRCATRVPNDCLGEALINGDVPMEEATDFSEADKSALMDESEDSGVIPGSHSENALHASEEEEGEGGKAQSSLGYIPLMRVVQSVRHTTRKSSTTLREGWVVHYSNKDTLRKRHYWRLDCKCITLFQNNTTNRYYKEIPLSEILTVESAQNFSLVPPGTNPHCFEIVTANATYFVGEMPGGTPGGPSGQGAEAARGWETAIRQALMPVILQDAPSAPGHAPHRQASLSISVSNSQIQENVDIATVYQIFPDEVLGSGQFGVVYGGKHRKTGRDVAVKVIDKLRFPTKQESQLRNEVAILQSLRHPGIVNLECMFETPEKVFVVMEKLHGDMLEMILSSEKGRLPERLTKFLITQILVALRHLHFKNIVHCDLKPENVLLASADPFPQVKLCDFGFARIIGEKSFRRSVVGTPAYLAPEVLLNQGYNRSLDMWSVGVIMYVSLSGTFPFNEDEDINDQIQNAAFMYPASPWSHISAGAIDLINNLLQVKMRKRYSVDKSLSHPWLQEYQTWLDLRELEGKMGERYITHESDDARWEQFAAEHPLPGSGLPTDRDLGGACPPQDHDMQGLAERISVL", "assay": "Selectivity interaction (KinomeScan (DiscoverX)) EUB0000666a PRKD2", "details": "at 10 µM"}, "[2]": {"molecular_target": "Mitogen-activated protein kinase 14 (Homo sapiens, UniProt Q16539)", "sequence (Q16539 whole entry)": "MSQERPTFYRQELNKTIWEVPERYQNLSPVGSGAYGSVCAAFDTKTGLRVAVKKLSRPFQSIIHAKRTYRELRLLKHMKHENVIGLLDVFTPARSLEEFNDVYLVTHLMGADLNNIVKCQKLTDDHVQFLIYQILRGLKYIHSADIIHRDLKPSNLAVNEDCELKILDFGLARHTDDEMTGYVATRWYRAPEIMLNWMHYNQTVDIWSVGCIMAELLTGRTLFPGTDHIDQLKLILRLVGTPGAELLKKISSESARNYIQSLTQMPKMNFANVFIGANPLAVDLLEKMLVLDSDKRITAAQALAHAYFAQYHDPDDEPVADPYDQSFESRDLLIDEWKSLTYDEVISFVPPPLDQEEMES", "assay": "Selectivity interaction (Kinase panel (33PanQinase(R) Activity Assay)) EUB0000877a MAPK14"}, "[3]": {"molecular_target": "LIM domain kinase 2 (Homo sapiens) (UniProt P53671)", "sequence (P53671 whole entry, looked up, the tested form may be a part)": "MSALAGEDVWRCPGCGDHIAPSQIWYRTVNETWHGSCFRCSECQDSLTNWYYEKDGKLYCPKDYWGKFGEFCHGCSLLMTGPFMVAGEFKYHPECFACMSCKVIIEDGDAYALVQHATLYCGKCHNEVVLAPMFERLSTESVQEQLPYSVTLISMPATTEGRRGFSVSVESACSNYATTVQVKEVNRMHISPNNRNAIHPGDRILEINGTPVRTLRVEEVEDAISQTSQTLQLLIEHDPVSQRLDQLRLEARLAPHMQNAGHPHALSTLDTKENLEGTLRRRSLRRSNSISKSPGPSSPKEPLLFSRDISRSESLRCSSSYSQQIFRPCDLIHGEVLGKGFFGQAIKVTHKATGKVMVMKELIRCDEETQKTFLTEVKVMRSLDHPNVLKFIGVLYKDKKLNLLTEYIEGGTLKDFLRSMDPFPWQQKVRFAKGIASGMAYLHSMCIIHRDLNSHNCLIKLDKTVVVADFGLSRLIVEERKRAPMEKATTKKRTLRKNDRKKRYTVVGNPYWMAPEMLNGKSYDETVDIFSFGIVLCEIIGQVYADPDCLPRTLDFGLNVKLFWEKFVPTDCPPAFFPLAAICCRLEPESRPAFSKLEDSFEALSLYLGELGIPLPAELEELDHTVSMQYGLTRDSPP", "assay": "Selectivity interaction (KinomeScan (DiscoverX)) EUB0000618a LIMK2", "details": "at 10 µM"}, "[4]": {"molecular_target": "Tyrosine-protein kinase Lck (Homo sapiens, UniProt P06239)", "sequence (P06239 2-509 limits assumed)": "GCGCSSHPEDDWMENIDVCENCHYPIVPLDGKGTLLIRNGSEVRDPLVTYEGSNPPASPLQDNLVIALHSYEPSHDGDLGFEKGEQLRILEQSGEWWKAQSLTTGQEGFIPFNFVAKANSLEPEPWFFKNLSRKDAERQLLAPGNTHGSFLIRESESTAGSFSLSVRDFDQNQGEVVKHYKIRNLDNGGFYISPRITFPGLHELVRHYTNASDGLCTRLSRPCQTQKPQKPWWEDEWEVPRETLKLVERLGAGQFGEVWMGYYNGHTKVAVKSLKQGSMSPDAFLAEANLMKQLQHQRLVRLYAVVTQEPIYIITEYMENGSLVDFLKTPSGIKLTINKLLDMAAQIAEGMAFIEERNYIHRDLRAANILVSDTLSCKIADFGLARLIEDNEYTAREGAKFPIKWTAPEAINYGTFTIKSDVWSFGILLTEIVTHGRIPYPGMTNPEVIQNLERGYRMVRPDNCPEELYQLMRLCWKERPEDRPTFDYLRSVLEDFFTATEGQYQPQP", "assay": "Selectivity interaction (KinomeScan (DiscoverX)) EUB0000695a LCK", "details": "at 100 nM"}, "[5]": {"molecular_target": "Tyrosine-protein kinase Yes (Homo sapiens) (UniProt P07947)", "sequence (P07947 2-543 limits assumed)": "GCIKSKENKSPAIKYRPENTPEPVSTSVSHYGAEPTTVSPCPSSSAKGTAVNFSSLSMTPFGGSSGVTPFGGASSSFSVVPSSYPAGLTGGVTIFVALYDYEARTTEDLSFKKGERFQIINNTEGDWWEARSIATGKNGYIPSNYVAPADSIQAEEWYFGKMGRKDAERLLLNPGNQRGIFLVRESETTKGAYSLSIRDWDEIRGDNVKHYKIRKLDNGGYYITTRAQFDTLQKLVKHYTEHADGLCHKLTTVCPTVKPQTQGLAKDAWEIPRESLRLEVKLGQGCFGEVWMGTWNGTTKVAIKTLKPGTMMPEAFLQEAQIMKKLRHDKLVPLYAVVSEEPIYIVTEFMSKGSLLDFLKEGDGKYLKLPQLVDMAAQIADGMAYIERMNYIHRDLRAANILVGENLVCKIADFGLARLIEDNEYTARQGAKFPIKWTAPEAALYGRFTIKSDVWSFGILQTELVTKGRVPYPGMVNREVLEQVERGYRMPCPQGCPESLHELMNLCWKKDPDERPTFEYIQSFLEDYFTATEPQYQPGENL", "assay": "Selectivity interaction (KinomeScan (DiscoverX)) EUB0000695a YES1", "details": "at 100 nM"}, "[6]": {"molecular_target": "T2, Mitogen-activated protein kinase kinase kinase 5 (Homo sapiens) (UniProt Q99683)", "T2 sequence (whole entry)": "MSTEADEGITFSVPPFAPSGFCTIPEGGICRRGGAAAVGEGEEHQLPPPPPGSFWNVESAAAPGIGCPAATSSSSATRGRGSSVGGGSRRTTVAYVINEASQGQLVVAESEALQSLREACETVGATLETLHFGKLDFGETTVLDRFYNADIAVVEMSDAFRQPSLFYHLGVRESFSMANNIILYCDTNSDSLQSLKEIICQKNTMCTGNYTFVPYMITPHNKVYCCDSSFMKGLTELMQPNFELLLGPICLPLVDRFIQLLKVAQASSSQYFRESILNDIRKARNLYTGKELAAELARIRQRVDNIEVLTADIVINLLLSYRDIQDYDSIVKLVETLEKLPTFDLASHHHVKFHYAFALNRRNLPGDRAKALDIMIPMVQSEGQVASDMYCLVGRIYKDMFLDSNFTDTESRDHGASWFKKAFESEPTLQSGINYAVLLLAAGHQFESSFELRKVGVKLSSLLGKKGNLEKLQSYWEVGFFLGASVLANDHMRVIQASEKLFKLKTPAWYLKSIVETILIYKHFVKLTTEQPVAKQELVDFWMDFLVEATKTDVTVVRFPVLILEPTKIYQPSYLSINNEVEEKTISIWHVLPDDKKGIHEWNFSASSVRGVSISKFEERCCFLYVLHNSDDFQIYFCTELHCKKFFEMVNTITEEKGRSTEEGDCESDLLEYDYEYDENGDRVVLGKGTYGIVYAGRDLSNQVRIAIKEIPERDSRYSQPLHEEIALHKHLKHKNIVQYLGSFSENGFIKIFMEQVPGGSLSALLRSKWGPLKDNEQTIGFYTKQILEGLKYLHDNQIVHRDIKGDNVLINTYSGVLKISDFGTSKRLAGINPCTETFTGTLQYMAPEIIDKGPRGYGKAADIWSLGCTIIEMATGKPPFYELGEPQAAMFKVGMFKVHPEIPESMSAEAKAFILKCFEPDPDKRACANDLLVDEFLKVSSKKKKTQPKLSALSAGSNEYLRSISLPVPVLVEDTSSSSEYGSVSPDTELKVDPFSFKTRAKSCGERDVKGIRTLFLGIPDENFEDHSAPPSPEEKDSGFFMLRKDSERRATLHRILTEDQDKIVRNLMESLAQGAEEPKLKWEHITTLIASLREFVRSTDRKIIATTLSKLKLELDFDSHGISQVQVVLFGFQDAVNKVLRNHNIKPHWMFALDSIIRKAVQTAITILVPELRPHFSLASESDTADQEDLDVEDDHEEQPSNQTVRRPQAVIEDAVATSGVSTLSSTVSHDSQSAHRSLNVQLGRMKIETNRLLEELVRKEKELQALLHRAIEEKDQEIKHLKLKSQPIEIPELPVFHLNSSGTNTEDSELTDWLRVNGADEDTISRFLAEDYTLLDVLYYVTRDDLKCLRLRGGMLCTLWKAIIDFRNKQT", "assay": "Selectivity interaction (LanthaScreen Eu Kinase Binding Assay) EUB0001632a MAP3K5", "details": "at 10 µM"}}, "data": [{"smiles": "O=C(NOC[C@H](O)CO)c1ccc(F)c(F)c1Nc1ccc(I)cc1F", "values": [{"measurement": "% of control", "setting": "[1]", "result": 100, "unit": "%"}]}, {"smiles": "CCC(=O)N1CC[C@H](Nc2ncnc3c2CN(c2cnc(OC)c(C(F)(F)F)c2)CC3)C1", "note": "[LENIOLISIB]", "values": [{"measurement": "IC50", "setting": "[2]", "result": "> 10", "unit": "µM"}]}, {"smiles": "O[C@H]1CC[C@H](Nc2ncc3nc(Nc4c(F)cc(F)cc4F)n([C@H]4CCOC4)c3n2)CC1", "values": [{"measurement": "% of control", "setting": "[3]", "result": 29, "unit": "%"}]}, {"smiles": "Cc1cc(F)c(C(=O)Nc2cccc(-c3nncn3C(C)C)n2)cc1-n1cnc(C2CC2)c1", "values": [{"measurement": "% of control", "setting": "[4]", "result": 86, "unit": "%"}, {"measurement": "% of control", "setting": "[5]", "result": 73, "unit": "%"}]}, {"smiles": "Cn1cc(-n2cnc3c(NCc4nc5cc(Cl)c(Cl)cc5[nH]4)nc(N4CCOCC4)nc32)cn1", "values": [{"measurement": "% of inhibition", "setting": "[6]", "result": -14.2, "unit": "%"}]}]}
